These results are taken from ChEMBL document CHEMBL1150118, “Agonodepsides a and B: two new depsides from a filamentous fungus F7524” (J Nat Prod, 2002).

In test [1] the target is T1, Enoyl-[acyl-carrier-protein] reductase [NADH] (Mycobacterium tuberculosis) (UniProt P9WGR1).
T1 sequence (whole entry): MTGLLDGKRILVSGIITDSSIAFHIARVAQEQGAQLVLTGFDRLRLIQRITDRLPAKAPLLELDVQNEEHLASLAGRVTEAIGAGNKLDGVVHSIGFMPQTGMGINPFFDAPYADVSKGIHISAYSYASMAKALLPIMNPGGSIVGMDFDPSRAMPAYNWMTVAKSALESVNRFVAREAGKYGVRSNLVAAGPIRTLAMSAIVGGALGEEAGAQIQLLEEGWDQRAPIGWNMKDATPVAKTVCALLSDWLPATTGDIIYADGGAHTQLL
In words: inhibition of Mycobacterium tuberculosis InhA at 100 uM after 20 mins by fluorometric assay.

The target of test [2] is T2, Enoyl-[acyl-carrier-protein] reductase [NADH] (Mycobacterium tuberculosis, UniProt P9WGR1).
T2 sequence (P9WGR1 whole entry): T1 sequence (whole entry)
Briefly: inhibition of Mycobacterium tuberculosis InhA after 20 mins by fluorometric assay.

Active and inactive are the calls of the source. The rule behind the calls is not given here.

On to `C/C=C(\C)c1cc(O)c(C)c(O)c1C(=O)Oc1cc(/C(C)=C/C)c(C(=O)O)c(O)c1C`, for which the outcome in test [1] was inactive.

Turning to `C/C=C(\C)c1cc(O)c(C)c(OC(=O)c2c(/C(C)=C/C)cc(O)c(C)c2O)c1` [AGONODEPSIDE A], in test [2], the IC50 (as a rule, the midpoint of a concentration-inhibition curve) stood at 75 µM. This counts as double-digit micromolar.
